T/C data for 20 compounds are collected here from PubChem BioAssay AID330 (DTP/NCI, 2004).

The experiment relates to P388 leukemia ip, CD2F1 mice, survival T/C. Nature of the experiment: NCI In Vivo Anticancer Drug Screen. Data for tumor model P388 Leukemia (intraperitoneal) in CD2F1 (CDF1) mice. The settings on record: endpoint: median survival time, higher = longer survival. The method, boiled down:
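Mice carrying the transplanted tumor received test compound or vehicle. Survival was recorded in each group, and the value is the treated-group measurement divided by that of the vehicle-treated control group.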

Setting [1] is: dose: 60.0 mg/kg/injection, schedule: Q01DX005 (ip), vehicle: saline with Tween-80.
The mark [2] stands for this setting: dose: 120.0 mg/kg/injection, schedule: Q01DX005 (ip), vehicle: saline with Tween-80.
Where [3] appears, read: dose: 240.0 mg/kg/injection, schedule: Q01DX005 (ip), vehicle: saline with Tween-80.
Setting [4] is: dose: 50.0 mg/kg/injection, schedule: Q01DX009 (ip), vehicle: saline with Tween-80.
The mark [5] stands for this setting: dose: 100.0 mg/kg/injection, schedule: Q01DX009 (ip), vehicle: saline with Tween-80.
[6] abbreviates: dose: 200.0 mg/kg/injection, schedule: Q01DX009 (ip), vehicle: saline with Tween-80.
The mark [7] stands for this setting: dose: 60.0 mg/kg/injection, schedule: Q01DX005 (ip), vehicle: Klucel (hydroxypropylcellulose) (HPC).
The mark [8] stands for this setting: dose: 120.0 mg/kg/injection, schedule: Q01DX005 (ip), vehicle: Klucel (hydroxypropylcellulose) (HPC).
The mark [9] stands for this setting: dose: 240.0 mg/kg/injection, schedule: Q01DX005 (ip), vehicle: Klucel (hydroxypropylcellulose) (HPC).

“And” between values parts separate entries of the source, which are not always exact repeats. Equal entries are not always repeated. Inconclusive results and toxic doses are left out. Peptide text beside a SMILES is read from it. * marks the point of attachment. Cbz = O=C(OCc1ccccc1)*; OBn = c1ccc(CO*)cc1

`CS(C)=Nc1ccc(Cl)cc1`: the T/C (dose: 100.0 mg/kg/injection, schedule: Q01DX001 (ip), vehicle: saline) was 109 % of control.
In the case of `COc1cc(OC)c(Cc2cc3c(cc2OC)OCO3)c(OC)c1`, the T/C under setting [1] was 91 % of control, the T/C under setting [2] is 87 % of control and the T/C under setting [3] was 87 % of control.
With `Clc1cccn2cnnc12`, the T/C reads like this: under setting [4], 98 % of control; under setting [5], 103 % of control; under setting [6], 100 % of control.
As for `CNc1ccc(OC)cc1`, the T/C reads like this: (dose: 100.0 mg/kg/injection, schedule: Q04DX003 (ip), vehicle: other) 100 % of control; (dose: 200.0 mg/kg/injection, schedule: Q04DX003 (ip), vehicle: other) 90 % of control; (dose: 400.0 mg/kg/injection, schedule: Q04DX003 (ip), vehicle: other) 109 % of control.
Consider `CCN(CCP(c1ccccc1)c1ccccc1)CCP(c1ccccc1)c1ccccc1`, for which the T/C (dose: 0.75 mg/kg/injection, schedule: Q04DX003 (ip), vehicle: saline with Tween-80) was 109 % of control; the T/C (dose: 1.5 mg/kg/injection, schedule: Q04DX003 (ip), vehicle: saline with Tween-80) was 109 % of control; the T/C (dose: 3.0 mg/kg/injection, schedule: Q04DX003 (ip), vehicle: saline with Tween-80) is 118 % of control; the T/C (dose: 3.13 mg/kg/injection, schedule: Q04DX003 (ip), vehicle: saline with Tween-80) was 118 % of control; the T/C (dose: 6.25 mg/kg/injection, schedule: Q04DX003 (ip), vehicle: saline with Tween-80) is 118 % of control; the T/C (dose: 100.0 mg/kg/injection, schedule: Q04DX003 (ip), vehicle: saline with Tween-80) was 100 % of control and 87 % of control.
Turning to `C/C=C1\C[C@@H]2C(OC)Nc3cc(O)c(OC)cc3C(=O)N2C1` (stereo partly specified), the T/C was 97 % of control (dose: 0.01 mg/kg/injection, schedule: Q04DX003 (ip), vehicle: other); 114 % of control (dose: 0.03 mg/kg/injection, schedule: Q04DX003 (ip), vehicle: other); 123 % of control (dose: 0.1 mg/kg/injection, schedule: Q04DX003 (ip), vehicle: other); 160 % of control (dose: 0.13 mg/kg/injection, schedule: Q04DX003 (ip), vehicle: other); 163 % of control (dose: 0.25 mg/kg/injection, schedule: Q04DX003 (ip), vehicle: other); 161 % of control (dose: 0.3 mg/kg/injection, schedule: Q04DX003 (ip), vehicle: other). Also, the T/C is, setting by setting: (dose: 0.5 mg/kg/injection, schedule: Q04DX003 (ip), vehicle: other) 168 % of control; (dose: 1.0 mg/kg/injection, schedule: Q04DX003 (ip), vehicle: other) 93 % of control; (dose: 1.0 micrograms/kg/injection, schedule: Q01DX009 (ip), vehicle: other) 110 % of control; (dose: 3.0 micrograms/kg/injection, schedule: Q01DX009 (ip), vehicle: other) 102 % of control; (dose: 10.0 micrograms/kg/injection, schedule: Q01DX009 (ip), vehicle: other) 118 % of control; (dose: 100.0 micrograms/kg/injection, schedule: Q01DX009 (ip), vehicle: other) 168 % of control. Further, the T/C (dose: 300.0 micrograms/kg/injection, schedule: Q01DX009 (ip), vehicle: other) was 200 % of control.
As for `Cc1cc(-c2ccc(N3C(=O)CC4(CCCCC4)C3=O)c(C)c2)ccc1N1C(=O)CC2(CCCCC2)C1=O`, the T/C is, setting by setting: (dose: 100.0 mg/kg/injection, schedule: Q04DX003 (ip), vehicle: Klucel (hydroxypropylcellulose) (HPC)) 90 % of control; (dose: 200.0 mg/kg/injection, schedule: Q04DX003 (ip), vehicle: Klucel (hydroxypropylcellulose) (HPC)) 90 % of control.
On to `c1ccc2sc(SCCCCCCCCCCCCSc3nc4ccccc4s3)nc2c1`, for which the T/C is, setting by setting: (dose: 50.0 mg/kg/injection, schedule: Q01DX005 (ip), vehicle: Klucel + Tween-80) 98 % of control; (dose: 100.0 mg/kg/injection, schedule: Q01DX005 (ip), vehicle: Klucel + Tween-80) 94 % of control; (dose: 200.0 mg/kg/injection, schedule: Q01DX005 (ip), vehicle: Klucel + Tween-80) 96 % of control.
As for `N#Cc1c(N)nc2c(c1N)CC(CCl)O2` (stereo unspecified), the T/C reads like this: under setting [4], 94 % of control; under setting [5], 96 % of control; under setting [6], 87 % of control.
As to `NCCCCC(NC(=O)OCc1ccccc1)C(=O)NC(CCCCN)C(=O)NC(CCCCN)C(=O)NC(Cc1c[nH]c2ccccc12)C(=O)OCc1ccccc1` (stereo unspecified) (Cbz-KKKW-OBn; configuration not given here), the T/C is 100 % of control (dose: 50.0 mg/kg/injection, schedule: Q01DX005 (ip), vehicle: Klucel (hydroxypropylcellulose) (HPC)); 96 % of control (dose: 100.0 mg/kg/injection, schedule: Q01DX005 (ip), vehicle: Klucel (hydroxypropylcellulose) (HPC)); 100 % of control (dose: 200.0 mg/kg/injection, schedule: Q01DX005 (ip), vehicle: Klucel (hydroxypropylcellulose) (HPC)).
As to `O=C(Nc1ccc(Cl)cc1)Nc1nnc2nc(CC(=O)c3ccc4ccccc4c3)c(=O)[nH]n12`, the T/C is, setting by setting: under setting [1], 97 % of control; under setting [2], 99 % of control; under setting [3], 97 % of control.
With `CN(/C=C1\CCCCC1=O)c1ccccc1`, the T/C reads like this: under setting [4], 98 % of control; under setting [5], 102 % of control; under setting [6], 113 % of control.
On to `O=[N+]([O-])c1cccc(Cl)c1C(Nc1nncs1)Nc1nncs1`, for which the T/C is, setting by setting: under setting [7], 96 % of control; under setting [8], 106 % of control; under setting [9], 118 % of control.
Regarding `CC(C(=O)c1ccc(O)cc1)(c1nc2nnc(N)n2[nH]c1=O)c1nc2nnc(N)n2[nH]c1=O`, the T/C is 98 % of control (dose: 60.0 mg/kg/injection, schedule: Q01DX005 (ip), vehicle: saline); 98 % of control (dose: 120.0 mg/kg/injection, schedule: Q01DX005 (ip), vehicle: saline); 97 % of control (dose: 240.0 mg/kg/injection, schedule: Q01DX005 (ip), vehicle: saline).
Turning to `CC(C)(C)n1nc(C2CC2)cc1NC(=O)Nc1ccc(Cl)cc1`, the T/C is 93 % of control under setting [1], 94 % of control under setting [2] and 91 % of control under setting [3].
For the compound `CCC1(O)CC(O)c2c(O)c3c(c(O)c2C1C(=O)OC)C(=O)c1cccc(O)c1C3=O` (stereo unspecified), the T/C was 96 % of control under setting [7], 94 % of control under setting [8] and 105 % of control under setting [9].
Consider `O=C1CCCCCCCNC(=O)CCCCCCC(=O)NCCCCCCCC(=O)NCCCCCCCCN1`, for which the T/C was 91 % of control (dose: 50.0 mg/kg/injection, schedule: Q01DX001 (ip), vehicle: Klucel (hydroxypropylcellulose) (HPC)); 90 % of control (dose: 100.0 mg/kg/injection, schedule: Q01DX001 (ip), vehicle: Klucel (hydroxypropylcellulose) (HPC)); 86 % of control and 89 % of control (dose: 200.0 mg/kg/injection, schedule: Q01DX001 (ip), vehicle: Klucel (hydroxypropylcellulose) (HPC)); 89 % of control (dose: 400.0 mg/kg/injection, schedule: Q01DX001 (ip), vehicle: Klucel (hydroxypropylcellulose) (HPC)).
With `O=C1CCCC2=C1C(c1ccccc1)C1=C(CCCC1=O)O2`, the T/C is 100 % of control under setting [1], 94 % of control under setting [2] and 92 % of control under setting [3].
`NC(C(=O)O)C(N)C(=O)O` (stereo unspecified): the T/C runs as follows: under setting [5], 90 % of control; (dose: 400.0 mg/kg/injection, schedule: Q01DX009 (ip), vehicle: saline with Tween-80) 100 % of control.
With `Cc1cccc(O)c1C(=O)OC(C)c1cccc2nc3c(C(=O)O)cccc3nc12` (stereo unspecified), the T/C was 108 % of control (dose: 0.5 mg/kg/injection, schedule: Q01DX005 (ip), vehicle: DMSO); 92 % of control (dose: 1.0 mg/kg/injection, schedule: Q01DX005 (ip), vehicle: DMSO); 100 % of control (dose: 2.0 mg/kg/injection, schedule: Q01DX005 (ip), vehicle: DMSO); 100 % of control (dose: 4.0 mg/kg/injection, schedule: Q01DX005 (ip), vehicle: Klucel (hydroxypropylcellulose) (HPC)); 119 % of control (dose: 6.25 mg/kg/injection, schedule: Q01DX005 (ip), vehicle: DMSO); 101 % of control (dose: 8.0 mg/kg/injection, schedule: Q01DX005 (ip), vehicle: Klucel (hydroxypropylcellulose) (HPC)). Also, the T/C (dose: 12.5 mg/kg/injection, schedule: Q01DX005 (ip), vehicle: DMSO) is 114 % of control; the T/C (dose: 16.0 mg/kg/injection, schedule: Q01DX005 (ip), vehicle: Klucel (hydroxypropylcellulose) (HPC)) was 101 % of control; the T/C (dose: 32.0 mg/kg/injection, schedule: Q01DX005 (ip), vehicle: Klucel (hydroxypropylcellulose) (HPC)) is 87 % of control.
